Laboratory results as given in publication PMC6657216, “Defining the Contribution of CYP1A1 and CYP1A2 to Drug Metabolism Using Humanized CYP1A1/1A2 and Cyp1a1/Cyp1a2 Knockout Mice” (Drug Metabolism and Disposition, 2019).
Values joined by “and” are separate entries in the source; they are usually repeats but may differ in a detail not shown here. Equal entries are not always repeated. Where two headings read alike, the source gives them in different places. Marks after values point to notes of the source that are not given here.

How the values were obtained:
[1] = Caffeine systemic clearance from published mouse studies; format: in vivo
in vivo = conditions: whole blood, po, 5 mg/kg
Procedure: (§1) A separate experimental group consisted of mice with conditionally deleted hepatic P450 oxidoreductase ([Henderson et al., 2003]) [hepatic reductase null (HRN) mice]. Whole blood samples from WT and hCYP1A1/1A2 mice were collected at 12, 24, and 40 minutes and 1, 2, 3, 4, 6, and 8 hours after the administration. Whole blood samples from HRN and Cyp1a1/1a2 KO mice were collected at 12, 24, and 40 minutes and 1, 3, 6, 8, 12, and 24 hours postadministration. The collected whole blood samples (10 μl) were mixed with an equal volume of heparin solution in water (15 U/ml), frozen in liquid nitrogen, and stored at −70°C. […] The supernatant was collected, and the centrifugation step was repeated.
(§2) Pharmacokinetic parameters were calculated using Phoenix WinNonlin version 6.4 (Certara, St. Louis, MO).

CYP1A2 = system: CYP1A2; design: method as in Culm-Merdek et al., 2005; conditions: healthy subjects; interaction with fluvoxamine; ref Culm-Merdek et al., 2005; cited from earlier work
[2] = cited from earlier work
[3] = for CYP1A2 Contribution: 5 mg/kg PO, This study; for AUCinf(obs) (% mean of C57BL/6J ± %S.D.) / CL/F(obs) (% mean of C57BL/6J ± %S.D.) / Cmax (% mean of C57BL/6J ± %S.D.) / V/F(obs) (% mean of C57BL/6J ± %S.D.) / V/F(obs): 5 mg/kg oral; for V/F(obs): mean ± S.D., n = 4
Procedure: as §1, §2

[4] = HRN (hepatic reductase null), mouse

Structure (SMILES): Cn1c(=O)c2c(ncn2C)n(C)c1=O [caffeine]
- CYP1A2 Contribution ([1]; C57BL/6J mice, 5 mg/kg PO, against Cyp1a KO clearance, clearance from ref Li et al., 2017): 39%
- CYP1A2 Contribution ([1]; C57BL/6J mice, 5 mg/kg PO, against Cyp1a KO clearance, clearance from ref Scheer et al., 2014): 61%
- CYP1A2 Contribution ([1]; C57BL/6N mice, 2 mg/kg i.p., calculated against CYP1A2^−/− clearance, clearance from ref Buters et al., 1996): 88%
- CYP1A2 Contribution ([1]; CD-1 mice, 20 mg/kg i.p., against Cyp1a KO clearance, clearance from ref Kaplan et al., 1990): 55%
- CYP1A2 Contribution ([1]; CD-1 mice, 40 mg/kg i.p., against Cyp1a KO clearance, clearance from ref Kaplan et al., 1990): 25%
- CYP1A2 Contribution ([1]; CD-COBS mice, 1 mg/kg i.v., against Cyp1a KO clearance, clearance from ref Walton et al., 2001): 61%
- CYP1A2 Contribution ([1]; CYP1A2^−/− mice, 2 mg/kg i.p., clearance from ref Buters et al., 1996): 0%
- CYP1A2 Contribution ([1]; Swiss mice, 20 mg/kg PO, against Cyp1a KO clearance, clearance from ref Samojlik et al., 2016): 8%
- CYP1A2 Contribution ([1]; Swiss mice, 20 mg/kg i.p., against Cyp1a KO clearance, clearance from ref Samojlik et al., 2016): 28%
- AUC(0-inf) (in vivo; C57BL/6J, mouse): 5700 ± 1260 ng·h/mL
- CL/F (in vivo; C57BL/6J, mouse): 15.1 mL/min/kg
- Cmax (in vivo; C57BL/6J, mouse): 2380 ± 628 ng/mL
- half-life (in vivo; C57BL/6J, mouse): 0.94 ± 0.25 h
- AUC(0-inf) (in vivo; Cyp1a KO, mouse): 17700 ± 2070 ng·h/mL
- CL/F (in vivo; Cyp1a KO, mouse): 4.77 mL/min/kg
- Cmax (in vivo; Cyp1a KO, mouse): 3990 ± 472 ng/mL
- half-life (in vivo; Cyp1a KO, mouse): 2.39 ± 0.2 h
- AUC(0-inf) (in vivo; [4]): 57300 ng·h/mL
- CL/F (in vivo; [4]): 1.45 mL/min/kg
- Cmax (in vivo; [4]): 3740 ± 794 ng/mL
- half-life (in vivo; [4]): 8.4 ± 0.8 h
- AUC(0-inf) (in vivo; hCYP1A1/1A2, mouse): 8400 ± 1800 ng·h/mL
- CL/F (in vivo; hCYP1A1/1A2, mouse): 10.2 mL/min/kg
- Cmax (in vivo; hCYP1A1/1A2, mouse): 3080 ± 194 ng/mL
- half-life (in vivo; hCYP1A1/1A2, mouse): 1.3 ± 0.33 h
- contribution of CYP1A2 to caffeine metabolism (CYP1A2): 93%
- Clearance ([2]; C57BL/6J mice, 5 mg/kg PO, calculated from the mean pharmacokinetic profile in Fig. 2 of the publication, ref Li et al., 2017): 472^a ml/(h*kg)
- Clearance ([2]; C57BL/6J mice, 5 mg/kg PO, ref Scheer et al., 2014): 726 mL/h/kg
- Clearance ([2]; C57BL/6N mice, 2 mg/kg i.p., ref Buters et al., 1996): 2268 mL/h/kg
- Clearance ([2]; CD-1 mice, 20 mg/kg i.p., ref Kaplan et al., 1990): 640 mL/h/kg
- Clearance ([2]; CD-1 mice, 40 mg/kg i.p., ref Kaplan et al., 1990): 380 mL/h/kg
- Clearance ([2]; CD-COBS mice, 1 mg/kg i.v., ref Walton et al., 2001): 732 mL/h/kg
- Clearance ([2]; Swiss mice, 20 mg/kg PO, calculated by dividing dose by AUCinf, ref Samojlik et al., 2016): 311^b ml/(h*kg)
- Clearance ([2]; Swiss mice, 20 mg/kg i.p., calculated by dividing dose by AUCinf, ref Samojlik et al., 2016): 398^b ml/(h*kg)
- CYP1A2 Contribution ([3]; C57BL/6J (WT) mice, against Cyp1a KO clearance): 68%
- AUCinf(obs) (% mean of C57BL/6J ± %S.D.) ([3]; C57BL/6J mice): 100 ± 22%
- CL/F(obs) (% mean of C57BL/6J ± %S.D.) ([3]; C57BL/6J mice): 100 ± 19%
- Cmax (% mean of C57BL/6J ± %S.D.) ([3]; C57BL/6J mice): 100 ± 26%
- V/F(obs) (% mean of C57BL/6J ± %S.D.) ([3]; C57BL/6J mice): 100 ± 39%
- V/F(obs) ([3]; C57BL/6J mice): 1.253 ± 0.494 L/kg
- increase of AUC compared with WT mice ([3]; Cyp1a KO mice): ~3.1 fold
- increase of elimination half-life compared with WT ([3]; Cyp1a KO mice): ~2.5 fold
- CYP1A2 Contribution ([3]; Cyp1a KO mice): 0%
- AUCinf(obs) (% mean of C57BL/6J ± %S.D.) ([3]; Cyp1a KO mice): 309 ± 36%
- Cmax (% mean of C57BL/6J ± %S.D.) ([3]; Cyp1a KO mice): 167 ± 20%
- V/F(obs) (% mean of C57BL/6J ± %S.D.) ([3]; Cyp1a KO mice): 79 ± 15%
- CL/F(obs) (% mean of C57BL/6J ± %S.D.) ([3]; Cyp1a KO mice, 5 mg/kg): 32% and 32 ± 4%
- V/F(obs) ([3]; Cyp1a KO mice): 0.992 ± 0.188 L/kg
- increase of AUC compared with WT mice ([3]; HRN mice): ~10 fold
- increase of elimination half-life compared with WT ([3]; HRN mice): ~8.9 fold
- AUCinf(obs) (% mean of C57BL/6J ± %S.D.) ([3]; HRN mice): 1004 ± 45%
- Cmax (% mean of C57BL/6J ± %S.D.) ([3]; HRN mice): 157 ± 33%
- V/F(obs) (% mean of C57BL/6J ± %S.D.) ([3]; HRN mice): 84 ± 7%
- CL/F(obs) (% mean of C57BL/6J ± %S.D.) ([3]; HRN mice, 5 mg/kg): 9.7 ± 0.42%
- V/F(obs) ([3]; HRN mice): 1.057 ± 0.082 L/kg
- increase of AUC compared with WT mice ([3]; hCYP1A1/1A2 mice): ~1.5 fold
- CYP1A2 Contribution ([3]; hCYP1A1/1A2 mice, against Cyp1a KO clearance): 53%
- AUCinf(obs) (% mean of C57BL/6J ± %S.D.) ([3]; hCYP1A1/1A2 mice): 147 ± 32%
- Cmax (% mean of C57BL/6J ± %S.D.) ([3]; hCYP1A1/1A2 mice): 129 ± 8%
- V/F(obs) (% mean of C57BL/6J ± %S.D.) ([3]; hCYP1A1/1A2 mice): 89 ± 4%
- CL/F(obs) (% mean of C57BL/6J ± %S.D.) ([3]; hCYP1A1/1A2 mice, 5 mg/kg): 68% and 68 ± 13%
- V/F(obs) ([3]; hCYP1A1/1A2 mice): 1.111 ± 0.055 L/kg
- increase of elimination half-life compared with WT ([3]; hCYP1A1/1A2 mice, not statistically significant): ~1.4 fold
